Legend:
[1] = target: T1, Alpha-1A adrenergic receptor (Homo sapiens, UniProt P35348); assay: Binding affinity was tested on human Alpha-1A adrenergic receptor
T1 sequence (P35348 whole entry): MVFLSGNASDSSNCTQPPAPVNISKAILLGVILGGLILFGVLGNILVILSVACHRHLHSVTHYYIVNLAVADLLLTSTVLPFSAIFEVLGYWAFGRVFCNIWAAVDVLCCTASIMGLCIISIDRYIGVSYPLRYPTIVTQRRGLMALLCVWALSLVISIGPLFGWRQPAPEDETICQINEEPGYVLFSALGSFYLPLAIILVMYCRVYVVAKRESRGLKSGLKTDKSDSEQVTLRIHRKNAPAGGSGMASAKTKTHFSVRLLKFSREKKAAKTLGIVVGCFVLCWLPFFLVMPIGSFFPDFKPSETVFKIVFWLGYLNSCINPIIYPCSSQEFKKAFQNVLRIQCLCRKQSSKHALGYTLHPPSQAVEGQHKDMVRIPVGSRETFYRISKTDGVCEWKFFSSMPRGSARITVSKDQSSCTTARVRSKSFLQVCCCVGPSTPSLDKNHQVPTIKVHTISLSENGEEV

[2] = target: T2, 3-oxo-5-alpha-steroid 4-dehydrogenase 2 (Homo sapiens, UniProt P31213); assay: Inhibition of human 5-alpha reductase 2 isozyme.
T2 sequence (P31213 whole entry): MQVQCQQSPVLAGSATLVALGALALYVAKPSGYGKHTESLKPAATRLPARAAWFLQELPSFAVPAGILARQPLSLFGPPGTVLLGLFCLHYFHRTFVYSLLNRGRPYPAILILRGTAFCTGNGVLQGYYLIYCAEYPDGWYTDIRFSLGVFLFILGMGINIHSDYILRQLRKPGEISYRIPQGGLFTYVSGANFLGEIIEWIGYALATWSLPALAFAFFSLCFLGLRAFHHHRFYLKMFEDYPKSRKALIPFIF

[3] = target: T3, Steroid 5-alpha-reductase (Rattus norvegicus, UniProt P24008+P31214); assay: Inhibition of rat 5-alpha reductase isozyme.; format: protein assay
T3 sequence (P24008 whole entry): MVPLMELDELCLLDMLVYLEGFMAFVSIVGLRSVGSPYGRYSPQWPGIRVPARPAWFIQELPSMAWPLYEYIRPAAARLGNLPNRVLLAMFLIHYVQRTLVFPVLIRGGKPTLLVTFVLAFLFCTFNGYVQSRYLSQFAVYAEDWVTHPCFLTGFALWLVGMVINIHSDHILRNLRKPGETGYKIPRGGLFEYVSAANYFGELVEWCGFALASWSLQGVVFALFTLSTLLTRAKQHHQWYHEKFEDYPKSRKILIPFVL
T3 sequence (P31214 whole entry): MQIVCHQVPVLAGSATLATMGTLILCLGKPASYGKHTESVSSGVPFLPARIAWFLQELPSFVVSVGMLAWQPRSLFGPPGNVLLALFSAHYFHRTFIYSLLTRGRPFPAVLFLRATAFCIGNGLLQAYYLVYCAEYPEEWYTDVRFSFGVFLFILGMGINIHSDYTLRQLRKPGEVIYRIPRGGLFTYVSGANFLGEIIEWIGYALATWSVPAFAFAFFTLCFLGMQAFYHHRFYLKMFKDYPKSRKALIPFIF

[4] = target: T4, 3-oxo-5-alpha-steroid 4-dehydrogenase 1 (Homo sapiens, UniProt P18405); assay: Inhibitory concentration was tested on human 5-alpha reductase 1 isozyme
T4 sequence (P18405 whole entry): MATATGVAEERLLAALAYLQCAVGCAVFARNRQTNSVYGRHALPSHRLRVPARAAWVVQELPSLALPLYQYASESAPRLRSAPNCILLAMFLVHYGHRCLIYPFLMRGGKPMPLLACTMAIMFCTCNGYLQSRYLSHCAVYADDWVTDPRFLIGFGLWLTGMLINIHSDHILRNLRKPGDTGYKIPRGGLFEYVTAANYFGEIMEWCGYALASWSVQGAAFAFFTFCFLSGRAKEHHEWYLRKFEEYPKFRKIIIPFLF

[5] = target: T5, Alpha-1B adrenergic receptor (Homo sapiens, UniProt P35368); assay: Binding affinity was tested on human Alpha-1B adrenergic receptor
T5 sequence (P35368 whole entry): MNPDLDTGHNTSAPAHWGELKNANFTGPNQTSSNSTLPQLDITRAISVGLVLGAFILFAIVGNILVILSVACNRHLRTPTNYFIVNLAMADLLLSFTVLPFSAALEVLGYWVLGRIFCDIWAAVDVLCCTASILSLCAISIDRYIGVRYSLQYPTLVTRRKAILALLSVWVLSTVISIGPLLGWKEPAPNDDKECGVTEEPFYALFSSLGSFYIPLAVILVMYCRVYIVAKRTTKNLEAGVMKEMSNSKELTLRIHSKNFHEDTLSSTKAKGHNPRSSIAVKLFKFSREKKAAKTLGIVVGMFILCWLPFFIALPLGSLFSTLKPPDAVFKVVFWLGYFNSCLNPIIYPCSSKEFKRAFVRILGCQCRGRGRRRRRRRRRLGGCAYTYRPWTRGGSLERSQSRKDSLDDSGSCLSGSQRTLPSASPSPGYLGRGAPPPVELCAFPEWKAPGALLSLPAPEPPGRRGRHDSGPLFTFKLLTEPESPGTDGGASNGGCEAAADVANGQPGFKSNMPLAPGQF

[6] = target: T6, Alpha-1D adrenergic receptor (Homo sapiens, UniProt P25100); assay: Binding affinity was tested on human Alpha-1D adrenergic receptor
T6 sequence (P25100 whole entry): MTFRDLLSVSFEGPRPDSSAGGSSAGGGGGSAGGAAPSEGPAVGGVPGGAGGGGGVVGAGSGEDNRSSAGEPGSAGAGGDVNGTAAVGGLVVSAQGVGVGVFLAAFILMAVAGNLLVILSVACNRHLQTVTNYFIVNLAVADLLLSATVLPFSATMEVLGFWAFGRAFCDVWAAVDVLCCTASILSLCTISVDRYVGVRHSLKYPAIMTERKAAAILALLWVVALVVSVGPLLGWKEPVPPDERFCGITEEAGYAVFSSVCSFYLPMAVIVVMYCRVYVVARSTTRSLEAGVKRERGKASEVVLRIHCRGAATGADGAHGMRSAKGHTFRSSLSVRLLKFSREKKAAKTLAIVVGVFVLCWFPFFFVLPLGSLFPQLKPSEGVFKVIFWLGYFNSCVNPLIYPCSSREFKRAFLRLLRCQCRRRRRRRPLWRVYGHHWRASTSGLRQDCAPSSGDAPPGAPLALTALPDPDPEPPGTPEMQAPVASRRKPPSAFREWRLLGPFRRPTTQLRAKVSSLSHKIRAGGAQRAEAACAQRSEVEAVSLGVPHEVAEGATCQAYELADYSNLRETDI

[7] = Apparent binding affinity on human 5-alpha reductase isozyme

CC(=O)CC(=O)NCCCN1CCC(c2ccccc2)(c2ccccc2)CC1
Ki [1]: 100 nM

CC(C)Cc1ccc([C@H](C)Oc2ccc(C(=O)c3cn(CCCC(=O)O)c4ccccc34)cc2)cc1
IC50 [2]: 4 nM | IC50 [3]: 1 nM | IC50 [4]: 40 nM

C[C@]12C=CC(=O)NC1CCC1C2CC[C@@]2(C)C1CC[C@@H]2C(=O)Nc1ccccc1 (some centres not stated)
IC50 [2]: < 0.1 nM | IC50 [4]: 20 nM

C[C@]12C=CC(=O)NC1CCC1C2CC[C@@]2(C)C1CC[C@@H]2C(=O)Nc1cc(C(F)(F)F)ccc1C(F)(F)F (some centres not stated)
IC50 [2]: 0.5 nM | IC50 [4]: 2.4 nM

COc1ccccc1N1CCN(CCN2C(=O)CC3(CCCC3)CC2=O)CC1
Ki [5]: 631 nM

CN1C(=O)CC[C@]2(C)c3ccc(Cl)cc3CCC12 (some centres not stated)
IC50 [4]: 17 nM

C[C@]12C=CC(=O)NC1CCC1C2CC[C@@]2(C)C1CC[C@@H]2C(=O)Nc1cccc(-c2ccccc2)c1 (some centres not stated)
IC50 [2]: < 0.1 nM | IC50 [4]: 14 nM

CC(C)Cc1ccc(C(Nc2cccc(C(=O)c3cn(CCCC(=O)O)c4ccccc34)c2)c2ccc(CC(C)C)cc2)cc1
IC50 [2]: 36 nM | IC50 [3]: 128 nM | IC50 [4]: 38 nM

CO/C(O)=C1\C(C)=NC(C)=C(C(=O)NCCCCN2CCC(c3ccccc3)(c3ccccc3)CC2)C1c1ccc([N+](=O)[O-])cc1 (configuration not stated)
Ki [6]: 145 nM | Ki [1]: 5.89 nM | Ki [5]: 64.6 nM

COc1cc2nc(N3CCN(C(=O)c4ccco4)[C@H]4CCCC[C@H]43)nc(N)c2cc1OC [CYCLAZOSIN]
Ki [1]: 25.1 nM

Cc1c(O[C@@H](C)c2ccc(CC(C)C)cc2)ccc(C(=O)Nc2ccccc2OCCCC(=O)O)c1C
IC50 [2]: 256 nM

O=C(O)c1ccc2c(c1)CCc1cc(Br)ccc1-2
IC50 [2]: 10000 nM | IC50 [4]: 26 nM

CC(C)N(C(=O)[C@H]1CCC2C3CC=C4C=C([N+](=O)[O-])CC[C@]4(C)C3CC[C@@]21C)C(C)C (some centres not stated)
Ki [7]: 590 nM

CC(C)CCCC(C)[C@H]1CCC2C3C(CC[C@@]21C)[C@@]1(C)CCC(=O)N(C)C1C[C@@H]3c1ccccc1 (some centres not stated)
IC50 [2]: 428 nM | IC50 [4]: 134 nM

C[C@]12C=CC(=O)NC1CCC1C2CC[C@@]2(C)C1CC[C@@H]2C(=O)Nc1cccc2ccccc12 (some centres not stated)
IC50 [2]: 0.2 nM | IC50 [4]: 8.1 nM

COc1cccc(OC)c1OCCNCC1COc2ccccc2O1 (configuration not stated)
Ki [1]: 0.158 nM

CC(C)Cc1ccc([C@]2(C)Oc3ccc(C(=O)c4cn(CCCC(=O)O)c5ccccc45)cc3O2)cc1
IC50 [2]: 23 nM | IC50 [3]: 9 nM | IC50 [4]: 25 nM

COc1cc2nc(N(C)CCCNC(=O)C3CCCO3)nc(N)c2cc1OC (configuration not stated) [ALFUZOSIN]
Ki [5]: 10 nM

CCN(CC)C(=O)[C@H]1CC[C@H]2[C@@H]3CC[C@H]4N(C)C(=O)CC[C@]4(C)[C@H]3CC[C@]12C
IC50 [2]: 1.9 nM | IC50 [3]: 9.5 nM | IC50 [4]: 1.7 nM

CC(C)CCCC(C)[C@H]1CCC2C3CCC4N(C)C(=O)CC[C@]4(C)C3CC[C@@]21C (some centres not stated)
IC50 [2]: 218 nM | IC50 [4]: 1.7 nM

Source: ChEMBL document CHEMBL1129998, “Pharmacological options in the treatment of benign prostatic hyperplasia” (J Med Chem, 1997)
